Test results: PMC9933483, “Tail-Approach-Based Design and Synthesis of Coumarin-Monoterpenes as Carbonic Anhydrase Inhibitors and Anticancer Agents” (ACS Omega, 2023)

What was measured:
HT-29 cell line = assay: Cell cytotoxicity, MTT assay; assay type: cell-based, human; settings: Homo sapiens, HT-29; MTT, 24 h
hCA IX = hCA IX (Homo sapiens, UniProt Q16790); assay: biochemical
MCF-7 cell line = assay: Cell cytotoxicity, MTT assay; assay type: cell-based, human; settings: Homo sapiens, MCF7, 24 h
PC-3 cell line = assay: Cell cytotoxicity, MTT assay; assay type: cell-based; settings: Homo sapiens, 24 h
HEK293T cell line = assay: Cell cytotoxicity, MTT assay; assay type: cell-based; settings: Homo sapiens, HEK-293T, 24 h, healthy cell line

melting point	Ki (hCA IX)	SMILES	IC50 (HT-29 cell line)	IC50 (MCF-7 cell line)	IC50 (PC-3 cell line)	IC50 (HEK293T cell line)
48 to 49 °C	0.0281 µM	C=CCc1ccc(OCc2cn(CCCCCCCCCCOc3ccc4ccc(=O)oc4c3)nn2)c(OC)c1 [Compound 34, 7-((10-(4-((4-Allyl-2-methoxyphenoxy)methyl)-1H-1,2,3-triazol-1-yl)decyl)oxy)-2H-chromen-2-one]	25.7 ± 8.15 µM	–	–	–
50 to 51 °C	–	Cc1ccc(C(C)C)cc1OCCCCCCCCCCOc1ccc2ccc(=O)oc2c1 [Compound 58, 7-((10-(5-Isopropyl-2-methylphenoxy)decyl)oxy)-2H-chromen-2-one]	> 200 µM	–	–	–
86 to 87 °C	0.176 µM	C=CCc1ccc(OCCOc2ccc3ccc(=O)oc3c2)c(OC)c1 [Compound 60, 7-(2-(4-Allyl-2-methoxyphenoxy)ethoxy)-2H-chromen-2-one]	> 80 µM	18.5 ± 3.59 µM	31.5 ± 8.71 µM	> 80 µM
122 to 123 °C	–	CC1CCC(C(C)C)C(OCc2cn(CCOc3ccc4ccc(=O)oc4c3)nn2)C1 (centres unmarked) [Compound 36, 7-(2-(4-(((2-isopropyl-5-methylcyclohexyl)oxy)methyl)-1H-1,2,3-triazol-1-yl)ethoxy)-2H-chromen-2-one]	38.2 ± 12.1 µM	–	–	–
–	0.303 µM	Cc1ccc(C(C)C)cc1OCCCOc1ccc2ccc(=O)oc2c1 [Compound 53, 7-(3-(5-Isopropyl-2-methylphenoxy)propoxy)-2H-chromen-2-one]	> 80 µM	30.8 ± 9.23 µM	> 200 µM	> 80 µM
72 to 74 °C	0.0299 µM	C=CCc1ccc(OCc2cn(CCCCCCCCCCCCOc3ccc4ccc(=O)oc4c3)nn2)c(OC)c1 [Compound 35, 7-((12-(4-((4-Allyl-2-methoxyphenoxy)methyl)-1H-1,2,3-triazol-1-yl)dodecyl)oxy)-2H-chromen-2-one]	23.2 ± 6.94 µM	–	–	–
181 to 182 °C	–	Cc1ccc(C(C)C)c(OCCOc2ccc3ccc(=O)oc3c2)c1 [Compound 44, 7-(2-(2-Isopropyl-5-methylphenoxy)ethoxy)-2H-chromen-2-one]	55.6 ± 4.91 µM	–	–	–
78 to 79 °C	–	CC1CCC(C(C)C)C(OCc2cn(CCCOc3ccc4ccc(=O)oc4c3)nn2)C1 (centres unmarked) [Compound 37, 7-(3-(4-(((2-Isopropyl-5-methylcyclohexyl)oxy)methyl)-1H-1,2,3-triazol-1-yl)propoxy)-2H-chromen-2-one]	39.9 ± 11.8 µM	18.4 ± 3.81 µM	29.1 ± 6.83 µM	24.2 ± 3.2 µM
–	0.0362 µM	Cc1ccc(C(C)C)cc1OCCCCCCOc1ccc2ccc(=O)oc2c1 [Compound 55, 7-((6-(5-Isopropyl-2-methylphenoxy)hexyl)oxy)-2H-chromen-2-one]	63.29 ± 0.57 µM	16.4 ± 2.91 µM	48.3 ± 14.1 µM	> 80 µM
172 to 173 °C	–	Cc1ccc(C(C)C)cc1OCCOc1ccc2ccc(=O)oc2c1 [Compound 52, 7-(2-(5-Isopropyl-2-methylphenoxy)ethoxy)-2H-chromen-2-one]	74.2 ± 6.48 µM	–	–	–
–	0.0383 µM	Cc1ccc(C(C)C)c(OCCCCCCCCCCCCOc2ccc3ccc(=O)oc3c2)c1 [Compound 51, 7-((12-(2-Isopropyl-5-methylphenoxy)dodecyl)oxy)-2H-chromen-2-one]	> 200 µM	19.6 ± 3.14 µM	62.8 ± 23.7 µM	50.1 ± 15.7 µM
58 to 59 °C	–	Cc1ccc(C(C)C)cc1OCCCCCCCCCCCCOc1ccc2ccc(=O)oc2c1 [Compound 59, 7-((12-(5-Isopropyl-2-methylphenoxy)dodecyl)oxy)-2H-chromen-2-one]	> 200 µM	–	–	–
62 to 63 °C	–	C=CCc1ccc(OCCCCCCCOc2ccc3ccc(=O)oc3c2)c(OC)c1 [Compound 64, 7-((7-(4-Allyl-2-methoxyphenoxy)heptyl)oxy)-2H-chromen-2-one]	> 80 µM	–	–	–
83 to 84 °C	0.189 µM	C=CCc1ccc(OCc2cn(CCCCCCCCCOc3ccc4ccc(=O)oc4c3)nn2)c(OC)c1 [Compound 33, 7-((9-(4-((4-Allyl-2-methoxyphenoxy)methyl)-1H-1,2,3-triazol-1-yl)nonyl)oxy)-2H-chromen-2-one]	31.3 ± 10.9 µM	–	–	–
–	0.0341 µM	CC1CCC(C(C)C)C(OCCCOc2ccc3ccc(=O)oc3c2)C1 (centres unmarked) [Compound 69, 7-(3-((2-Isopropyl-5-methylcyclohexyl)oxy)propoxy)-2H-chromen-2-one]	12.1 ± 1.94 µM	5.86 ± 1.22 µM	41.4 ± 14.9 µM	50 ± 8.43 µM
70 to 71 °C	–	C=CCc1ccc(OCCCOc2ccc3ccc(=O)oc3c2)c(OC)c1 [Compound 61, 7-(3-(4-Allyl-2-methoxyphenoxy)propoxy)-2H-chromen-2-one]	> 80 µM	–	–	–
56 to 57 °C	–	C=CCc1ccc(OCCCCCCCCCOc2ccc3ccc(=O)oc3c2)c(OC)c1 [Compound 65, 7-((9-(4-Allyl-2-methoxyphenoxy)nonyl)oxy)-2H-chromen-2-one]	39.4 ± 7.1 µM	–	–	–

The next lines start with the compound.

SMILES	melting point	Ki (hCA IX)	IC50 (HT-29 cell line)	IC50 (MCF-7 cell line)	IC50 (PC-3 cell line)	IC50 (HEK293T cell line)
Cc1ccc(C(C)C)cc1OCc1cn(CCCCCCCCCCCCOc2ccc3ccc(=O)oc3c2)nn1 [Compound 27, 7-((12-(4-((5-Isopropyl-2-methylphenoxy)methyl)-1H-1,2,3-triazol-1-yl)dodecyl)oxy)-2H-chromen-2-one]	80 to 81 °C	0.0304 µM	29.6 ± 6.47 µM	–	–	–
Cc1ccc(C(C)C)c(OCc2cn(CCCCCCCCCCCCOc3ccc4ccc(=O)oc4c3)nn2)c1 [Compound 19, 7-((12-(4-((2-Isopropyl-5-methylphenoxy)methyl)-1H-1,2,3-triazol-1-yl)dodecyl)oxy)-2H-chromen-2-one]	68 to 69 °C	0.0218 µM	37.6 ± 11.7 µM	–	–	–
C=CCc1ccc(OCc2cn(CCCCOc3ccc4ccc(=O)oc4c3)nn2)c(OC)c1 [Compound 30, 7-(4-(4-((4-Allyl-2-methoxyphenoxy)methyl)-1H-1,2,3-triazol-1-yl)butoxy)-2H-chromen-2-one]	73 to 74 °C	–	41.8 ± 13.5 µM	51.2 ± 27 µM	57.6 ± 23.9 µM	26.8 ± 2.44 µM
Cc1ccc(C(C)C)cc1OCCCCOc1ccc2ccc(=O)oc2c1 [Compound 54, 7-(4-(5-Isopropyl-2-methylphenoxy)butoxy)-2H-chromen-2-one]	74 to 75 °C	–	59.8 ± 6.73 µM	–	–	–
Cc1ccc(C(C)C)cc1OCc1cn(CCCCCCCOc2ccc3ccc(=O)oc3c2)nn1 [Compound 24, 7-((7-(4-((5-Isopropyl-2-methylphenoxy)methyl)-1H-1,2,3-triazol-1-yl)heptyl)oxy)-2H-chromen-2-one]	83 to 84 °C	0.0327 µM	56.9 ± 18.2 µM	> 200 µM	> 200 µM	134 ± 60.4 µM
C=CCc1ccc(OCc2cn(CCCCCCCOc3ccc4ccc(=O)oc4c3)nn2)c(OC)c1 [Compound 32, 7-((7-(4-((4-Allyl-2-methoxyphenoxy)methyl)-1H-1,2,3-triazol-1-yl)heptyl)oxy)-2H-chromen-2-one]	101 to 102 °C	–	16.3 ± 5.34 µM	> 200 µM	36.7 ± 29 µM	40.6 ± 13.7 µM
C=CCc1ccc(OCCCCOc2ccc3ccc(=O)oc3c2)c(OC)c1 [Compound 62, 7-(4-(4-Allyl-2-methoxyphenoxy)butoxy)-2H-chromen-2-one]	–	0.0313 µM	> 80 µM	11.3 ± 3.61 µM	45.5 ± 26.5 µM	64.7 ± 20.1 µM
Cc1ccc(C(C)C)cc1OCc1cn(CCCCCCCCCCOc2ccc3ccc(=O)oc3c2)nn1 [Compound 26, 7-((10-(4-((5-Isopropyl-2-methylphenoxy)methyl)-1H-1,2,3-triazol-1-yl)decyl)oxy)-2H-chromen-2-one]	73 to 74 °C	0.258 µM	40.8 ± 10.2 µM	–	–	–
Cc1ccc(C(C)C)cc1OCc1cn(CCCCCCCCCOc2ccc3ccc(=O)oc3c2)nn1 [Compound 25, 7-((9-(4-((5-Isopropyl-2-methylphenoxy)methyl)-1H-1,2,3-triazol-1-yl)nonyl)oxy)-2H-chromen-2-one]	69 to 70 °C	0.0897 µM	47.6 ± 13.8 µM	–	–	–
Cc1ccc(C(C)C)c(OCc2cn(CCCCCCCCCCOc3ccc4ccc(=O)oc4c3)nn2)c1 [Compound 18, 7-((10-(4-((2-Isopropyl-5-methylphenoxy)methyl)-1H-1,2,3-triazol-1-yl)decyl)oxy)-2H-chromen-2-one]	72 to 73 °C	0.268 µM	41.5 ± 14.2 µM	–	–	–
CC1CCC(C(C)C)C(OCc2cn(CCCCOc3ccc4ccc(=O)oc4c3)nn2)C1 (centres unmarked) [Compound 38, 7-(4-(4-(((2-Isopropyl-5-methylcyclohexyl)oxy)methyl)-1H-1,2,3-triazol-1-yl)butoxy)-2H-chromen-2-one]	75 to 76 °C	0.3 µM	37.2 ± 11.6 µM	–	–	–
C=CCc1ccc(OCc2cn(CCOc3ccc4ccc(=O)oc4c3)nn2)c(OC)c1 [Compound 28, 7-(2-(4-((4-Allyl-2-methoxyphenoxy)methyl)-1H-1,2,3-triazol-1-yl)ethoxy)-2H-chromen-2-one]	118 to 119 °C	0.0319 µM	25.8 ± 8.4 µM	–	–	–
C=CCc1ccc(OCc2cn(CCCOc3ccc4ccc(=O)oc4c3)nn2)c(OC)c1 [Compound 29, 7-(3-(4-((4-Allyl-2-methoxyphenoxy)methyl)-1H-1,2,3-triazol-1-yl)propoxy)-2H-chromen-2-one]	88 to 89 °C	–	23.5 ± 7.22 µM	20.6 ± 6.5 µM	32.4 ± 9.16 µM	34.1 ± 8.6 µM
Cc1ccc(C(C)C)c(OCCCCOc2ccc3ccc(=O)oc3c2)c1 [Compound 46, 7-(4-(2-Isopropyl-5-methylphenoxy)butoxy)-2H-chromen-2-one]	–	0.0824 µM	> 80 µM	> 200 µM	> 80 µM	> 80 µM
